Test: xn = mol fraction of the nth substance listed

CCCCNCCCC + CC(C)CO
viscosity [mPa·s], 101.33 kPa
Settings	298.15 K	308.15 K	318.15 K
x1 = 0.0659	3.147	2.311	1.743
x1 = 0.0962	3.01	2.218	1.683
x1 = 0.1558	2.74	2.038	1.562
x1 = 0.1967	2.557	1.918	1.482
x1 = 0.2681	2.25	1.708	1.336
x1 = 0.3132	2.076	1.591	1.256
x1 = 0.3956	1.791	1.394	1.118
x1 = 0.4699	1.576	1.245	1.011
x1 = 0.5552	1.379	1.11	0.914
x1 = 0.6322	1.234	1.007	0.838
x1 = 0.7567	1.05	0.874	0.743
x1 = 0.8163	0.985	0.824	0.708
x1 = 0.8647	0.93	0.787	0.678
x1 = 0.8978	0.901	0.766	0.662
x1 = 0.9162	0.882	0.751	0.651

CCCCNCCCC + C1CCCCC1
viscosity [mPa·s], 101 kPa
Settings	303.15 K	313.15 K
x1 = 0.01094	0.8102	0.7072
x1 = 0.02041	0.8023	0.6959
x1 = 0.02983	0.7945	0.6867
x1 = 0.03917	0.7871	0.6761
x1 = 0.04929	0.7755	0.6665
x1 = 0.05831	0.7665	0.6583
x1 = 0.06895	0.7585	0.6494
x1 = 0.07966	0.7491	0.6406
x1 = 0.08806	0.742	0.6327
x2 = 0.1011	0.749	–
x2 = 0.2001	0.737	–
x2 = 0.3025	0.731	–
x2 = 0.4034	0.728	–
x2 = 0.4997	0.727	–
x2 = 0.605	0.729	–
x2 = 0.7025	0.727	–
x2 = 0.7989	0.743	–
x2 = 0.8971	0.759	–

CCCCBr + CCCCO
viscosity [mPa·s], 101.33 kPa
Settings	x2 = 0.1114	x2 = 0.2168	x2 = 0.3241	x2 = 0.4255	x2 = 0.5172	x2 = 0.6158	x2 = 0.7127	x2 = 0.7911	x2 = 0.8968
298.15 K	0.63	0.685	0.759	0.86	0.983	1.158	1.394	1.636	2.046
308.15 K	0.554	0.588	0.638	0.706	0.793	0.918	1.086	1.261	1.581
318.15 K	0.495	0.522	0.561	0.613	0.679	0.771	0.899	1.029	1.264

C[N+](C)(C)C[C@H](O)CC(=O)[O-] + O=C1O[C@H]([C@@H](O)CO)C(O)=C1O
Settings	viscosity [mPa·s]
298.15 K, 101.33 kPa, x2 = 0.7	423.5

COCCO + CC(=O)N(C)C
viscosity [mPa·s], 101 kPa
Settings	298.15 K	308.15 K	318.15 K
x2 = 0.0301	1.535	1.254	1.048
x2 = 0.06	1.528	1.25	1.046
x2 = 0.0871	1.52	1.247	1.045
x2 = 0.125	1.507	1.239	1.041
x2 = 0.1767	1.488	1.228	1.034
x2 = 0.225	1.466	1.214	1.026
x2 = 0.2902	1.432	1.192	1.011
x2 = 0.364	1.39	1.164	0.991
x2 = 0.4602	1.329	1.122	0.96
x2 = 0.52	1.289	1.092	0.938
x2 = 0.5611	1.26	1.07	0.921
x2 = 0.62	1.216	1.038	0.897
x2 = 0.6654	1.181	1.011	0.876
x2 = 0.725	1.135	0.977	0.849
x2 = 0.7732	1.099	0.949	0.827
x2 = 0.825	1.059	0.919	0.803
x2 = 0.8847	1.014	0.885	0.775
x2 = 0.9501	0.965	0.847	0.746

CCCCNCCCC + CCCCCCO
viscosity [mPa·s], 101.33 kPa
Settings	x1 = 0.1034	x1 = 0.1705	x1 = 0.2901	x1 = 0.3817	x1 = 0.5001	x1 = 0.5958	x1 = 0.6955	x1 = 0.7942	x1 = 0.9007
303.15 K	3.304	2.992	2.495	2.156	1.776	1.52	1.277	1.088	0.9036
313.15 K	2.723	2.473	2.069	1.792	1.475	1.265	1.088	0.9214	0.7818

— the CheMixHub viscosity set
